Source: paper PMC10878532, “Sperm Toolbox—A selection of small molecules to study human spermatozoa” (PLOS ONE, 2024)
Where a name gives a salt, the structure may show the parent alone.

Assays:
[1] = tested on: human spermatozoa; assay: Acrosome assay, protocol 1 (3h incubation with compound, no agonist; flow cytometry, PNA); format: cell-based; conditions: assay 'Acrosome', incubation_time 3h
Method: The acrosome assays utilize a high-throughput flow cytometer (S1 Fig) to score for compounds inducing the acrosome reaction, using peanut agglutinin conjugated to a fluorescent dye to label the outer acrosomal membrane. We have developed two different screening protocols, named ‘acrosome 1’ and ‘acrosome 2’ (S1 Fig). […] This addition allowed measurement of inhibition of acrosome reaction (Fig 2B).
(§1) In both experimental protocols, 20 μL of pooled cells (at 1 M/mL concentration) were capacitated for 3 h in presence of compounds at 37°C and 5% CO2. In protocol a, cells were then stained with PNA-Alexa647 (ThermoFisher, 1 mg/mL, final dilution 1:1000) and Hoechst dye for 30 min at 37°C and 5% CO2, followed by 10 min fixation at RT by adding 20 μL of 4% paraformaldehyde (Sigma) in PBS. In mode b, a cocktail of progesterone, prostaglandin A and NH4Cl was added to all compound wells and incubated for an additional 1 h at 37°C and 5% CO2 to induce acrosome reaction. This was followed by fixation and staining protocol as for mode a. In both protocols fixatives and stains were removed and cells were resuspended in PBS, using a 405 platewasher. Plates were then measured on a Novocyte Advanteon high-throughput flow cytometer. Gating of data has been performed using the flow cytometer software to export counts of gated populations. The Acrosome 1 protocol using 3h incubation with compounds was run in 7 separate donor pools. The Acrosome 2 protocol using 3h incubation with compound followed by 1h stimulation of acrosome reaction was run in 5 separate donor pools.
(§2) For cell painting imaging data, plates of images were imported into OMERO [70]. Cell segmentation and feature extraction were performed using CellProfiler 3 [71] and using instructions from to normalize data. Timelapse data of motility assays was processed as previously described. Acrosome flow cytometry data was processed using NovoCyte Express (PerkinElmer), to gate out background debris, select for single cells and calculate percentage values of acrosome positive events. Sperm viability flow cytometry data was processed using iQue Forecyt (Satorius) to gate out background debris, select for single cells and calculate percentage values of propidium iodide positive events. For all sperm functional assays, data was normalized to DMSO control wells. Each plate had 16 DMSO wells. A median value of all 16 wells was used to calculated percentage change (pct_ch = ((value / DMSO_median) -1) * 100). For sperm viability we calculated fold-change (fc = 1 − (value / DMSO_median)). For each compound we calculated a p-value using a Welch’s t-test implemented in scipy (scipy.stats.ttest_ind) comparing a compounds effect to DMSO controls.

[2] = tested on: spermatozoa; parameters: method as in per compound as listed in column References of Table 1; conditions: summaries of reported effects; ref per compound as listed in Table 1; cited from earlier work
[3] = tested on: human spermatozoa; assay: Motility assay (non-capacitating conditions); format: cell-based; conditions: for sperm motility and/or acrosome reacted cells (unsupervised clustering): cluster in Fig 3A heatmap, 30 μM
Method: (§3) To compare the effects of STB compounds on specific sperm functions (e.g. motility, acrosome reaction, viability), we screened them in multiple phenotypic functional assays described below. Each sperm function assay has been repeated in multiple donor pools (see Materials and methods), where each pool consists of cells donated from at least 3 different donors to address donor to donor variability. Each compound has been tested at two concentrations, 10 and 30 μM, and normalized to vehicle controls (DMSO, see Materials and methods). We have modified our assays from the previously published workflow by increasing incubation time and introducing conditions that support capacitation, which is a sperm maturation process required for fertilization. These changes expand the range of targets that we can explore in our assays. Our live-sperm-based high-throughput motility assays use an automated microscope to record short timelapse movies. These assays can be run in different protocols (S1 Fig). […] In this protocol, cells are incubated with compounds for 10 min prior to the first motility read-out. A second and third motility read-out were performed after 3h and 6h incubation. The second protocol, denoted ‘capacitation assay’, utilises conditions that support capacitation (S1 Fig). In this protocol, cells are kept in conditions supporting capacitation for 30 minutes prior to 30 minutes incubation with compound, followed by motility read-out. Both protocols allow sperm motility to be measured (0.5 sec time-lapse movies allow tracking of cells and calculation of sperm kinematics). In addition, the capacitation assay also scores hyperactivation (i.e. distinct movement patterns concomitant with capacitation which are crucial for fertilization) (Fig 2A).
Cells were rested for 1 h post density gradient centrifugation. 10 μL assay buffer was dispensed into assay ready plates, plates were put onto a shaker instrument for 30 seconds using 1,000 rpm, followed by a short pulse centrifugation. Plates were incubated for 15–30 mins at 37°C prior to addition of 10 μL of pooled cells (at 1 M/mL concentration). Plates were then incubated in a Yokogawa CV7000 microscope set at 37°C for 10 min prior to imaging. Imaging a 384-well plate requires ≤ 20 min using the following settings: 2 positions per well, 0.5 sec timelapse movies (3x binning; 11 ms exposure time, 22 ms interval time, […]). A second and a third timepoint was recorded after 3 h, and 6 h incubation at 37°C. Data has been processed as described in [8]. Assay results are from 5 separate donor pools.
as §2

[4] = tested on: human spermatozoa; assay: Authors' own unpublished screening campaigns ('This study'); format: cell-based
Text: Because there is so little known about the molecular mechanisms that control sperm motility, we are unable to develop hypotheses of potential targets when new hits are identified in the sperm motility assay. However, it is now well-established that features derived from images in phenotypic assays, when compared to phenotypes measured on reference compounds, can accurately stratify genetic or chemical perturbations in phenotypic screens. […] Compound annotations are included in the dataset derived from the STB and indicate that Enzymes/Kinases, Receptors, Channels and Transporters are the most represented target of the STB compound classes (Fig 1D).
List of compounds included in Sperm Toolbox. Published Phenotypes are summaries of reported effects on sperm function related to other processes (e.g. spermatogenesis, liquefaction, or ejaculation).

[5] = tested on: LRRK2 kinase; conditions: annotated as; cited from earlier work
[6] = tested on: HepG2; assay: HepG2 cytotoxicity assay (resazurin based); format: cell-based; conditions: 70h incubation
[7] = tested on: human spermatozoa; assay: Acrosome assay, protocol 2 (3h with compound, then 1h agonist cocktail); format: cell-based; conditions: cluster in Fig 3A; 3h with compound then agonist mix
Method: The acrosome assays utilize a high-throughput flow cytometer (S1 Fig) to score for compounds inducing the acrosome reaction, using peanut agglutinin conjugated to a fluorescent dye to label the outer acrosomal membrane. We have developed two different screening protocols, named ‘acrosome 1’ and ‘acrosome 2’ (S1 Fig). Both protocols are capable of measuring induction of the acrosome reaction upon compound incubation. However, in the acrosome 2 assay, a mixture of physiological agonists of the acrosome reaction is used after cells have been incubated with compounds for 3h under conditions that support capacitation. This addition allowed measurement of inhibition of acrosome reaction (Fig 2B).
as §1
as §2, with “Sperm viability flow cytometry data was processed using iQue Forecyt (Satorius) to gate out background debris, select for single cells and calculate percentage values of propidium iodide positive events. For all sperm functional assays, data was normalized to DMSO control wells. Each plate had 16 DMSO wells.” left out

[8] = tested on: human spermatozoa; assay: Sperm viability assay (propidium iodide, flow cytometry); format: cell-based; conditions: 3h with compound
Method: In this assay, cells are incubated for 3h with compound in non-capacitating media, prior to viability assessment.
Cells were incubated with compounds for a total of 3h at 37°C. 20 min prior, propidium iodide was added (1.5 mM solution, Sigma, final dilution 1:2000). Plates were analysed using a Satorius iQue Screener with settings to allow for a sampling time of ≤30 min per 384-well plate. Gating of data has been performed using the flow cytometer software to export counts of gated populations. This assay was tested in 5 separate donor pools.
as §2

[9] = tested on: human spermatozoa; assay: Capacitation assay (motility and hyperactivation under capacitating conditions); format: cell-based; conditions: cluster in Fig 3A; 30 min capacitation then 30 min with compound
Method: as §3
Cells were capacitated for 30 min at 37°C and 5% CO2. 10 μL assay buffer was dispensed into assay ready plates, plates were put onto a shaker instrument for 30 seconds using 1,000 rpm, followed by a short pulse centrifugation. Plates were incubated for 15–30 mins at 37°C and 5% CO2 prior to addition of 10 μL of pooled cells (at 1 M/mL concentration). This was followed by a 20 min compound incubation step at 37°C and 5% CO2. Plates were then incubated in our CV7000 microscope set at 37°C and 5% CO2 for 10 min prior to imaging. […]
For cell painting imaging data, plates of images were imported into OMERO [70]. […] A median value of all 16 wells was used to calculated percentage change (pct_ch = ((value / DMSO_median) -1) * 100). For sperm viability we calculated fold-change (fc = 1 − (value / DMSO_median)). For each compound we calculated a p-value using a Welch’s t-test implemented in scipy (scipy.stats.ttest_ind) comparing a compounds effect to DMSO controls.

[10] = tested on: HeLa; assay: HeLa cell painting cytotoxicity assay; format: cell-based; conditions: 24h compound incubation
Method: The HeLa-based assay uses the cell painting assay [11], while the HepG2 assay utilizes a resazurin based viability read-out [64].
Cell were incubated with compounds for 24h.
• 10 μL of MitoTracker (Life Technologies, M22426, 1 mM stock in DMSO as recommended by the vendor) is added to 50 μL of media (1:2000 final dilution) • Phalloidin-Alexa594 (Life Technologies, A12381, 66 μM stock in methanol as recommended by the vendor, 1:500 final dilution) • WGA-Alexa594 (Life Technologies, W11262, 5 mg/mL stock, 1:250 final dilution) was used • DAPI (5 mg/mL stock; 1:1000 final dilution) was used to stain DNA • 20 μL of staining solution was used • PBS was used for washing steps
For cell painting imaging data, plates of images were imported into OMERO [70]. Cell segmentation and feature extraction were performed using CellProfiler 3 [71] and using instructions from [11] to normalize data.

[11] = screening_concentration_M 9.99e-6
[12] = screening_concentration_M 2.991e-5

For `N=C(N)Nc1nc2ccccc2[nH]1` [2-Guanidinobenzimidazole], the “ch (percentage change vs DMSO median), Acrosome” value [1, 11] is listed as 0.2236%, the “ch (percentage change vs DMSO median), Acrosome” value [1, 12] is listed as 0.07571% and the “Published Phenotype” value [2] is listed as “Reduces sperm motility”.

In the case of `CNc1ccc2oc(C[C@H]3O[C@@]4(CC[C@H]3C)O[C@H]([C@H](C)C(=O)c3ccc[nH]3)[C@H](C)C[C@H]4C)nc2c1C(=O)O` [A23187], the “Published Phenotype” value [2] is listed as “Induces acrosome reaction” and the “sperm motility and/or acrosome reacted cells (unsupervised clustering)” value [3] is listed as “significant reduction of sperm motility and/or increased amounts of acrosome reacted cells”.

With `NC(=O)Nc1cc(-c2cccc(F)c2)sc1C(=O)N[C@H]1CCCNC1` [AZD 7762 hydrochloride] the “Phenotype observed in own screening campaigns (Published Phenotype, References 'This study')” value (from here on “Phenotype observed”) [4] was “Reduces sperm motility”.

For `CCCCC(CC)CNC(=N)NC(=N)NCCCCCCNC(=N)NC(=N)NCC(CC)CCCC` (stereo not drawn) [Alexidine dihydrochloride], the “Published Phenotype” value [2] is given as “Reduces sperm motility” and the “sperm motility and/or acrosome reacted cells (unsupervised clustering)” value [3] is given as “significant reduction of sperm motility and/or increased amounts of acrosome reacted cells”.

In the case of `CCOc1ccc(-c2nc(-c3cccc4c3CCC4NCCO)no2)cc1OCC` (stereo not drawn) [CYM 5442 hydrchloride], the “Phenotype observed” value [4] is reported as “Reduces sperm motility; induces acrosome reaction”.

In the case of `COc1cc(N2CCOCC2)ccc1Nc1ncc(F)c(Nc2ccccc2NS(C)(=O)=O)n1` [CZC 25146], the LRRK2 inhibition [5] is listed as “potent LRRK2 inhibitor” and the sperm motility [3] is listed as “decrease sperm motility”.

In the case of `Nc1nc(Cl)nc2c1ncn2[C@@H]1O[C@H](CO)[C@@H](O)[C@@H]1F` [Clofarabine], the “Published Phenotype” value [2] is given as “Enhances sperm motility”, the “general cytotoxicity (HepG2)” value [6] is given as “do not show effects” and the “acrosome reaction (acrosome reacted cells)” value (“acrosome reaction” below) [7] is given as “significantly increased”. For the same compound, the “effects on sperm viability” value [8] was “do not show effects”, the hyperactive motility [9] was “significantly increased” and the “general cytotoxicity (HeLa)” value [10] was “do not show effects”.

For `Clc1ccc(C(OCCN2CCCCC2)c2ccccc2)cc1` (stereo not drawn) [Cloperastine hydrochloride], the “Phenotype observed” value [4] was “Reduces sperm motility”.

For `CCS(=O)(=O)Nc1ccc2c(c1)/C(=C(/Nc1ccc(CN3CCCCC3)cc1)c1ccccc1)C(=O)N2` [Hesperadin hydrochloride], the “Phenotype observed” value [4] was “Reduces sperm motility”.

In the case of `C[C@]1(O)C[C@@H](c2nc(-c3ccc4ccc(-c5ccccc5)nc4c3)c3c(N)nccn32)C1` [Linsitinib], the “Published Phenotype” value [2] is listed as “enhances sperm motility”, the “general cytotoxicity (HepG2)” value [6] is listed as “do not show effects” and the “acrosome reaction” value [7] is listed as “significantly increased”. For the same compound, the “effects on sperm viability” value [8] was “do not show effects”, the hyperactive motility [9] was “significantly increased” and the “general cytotoxicity (HeLa)” value [10] was “do not show effects”.

In the case of `Cc1ccc(S(=O)(=O)c2ccc([N+](=O)[O-])o2)cc1` [NSC 697923], the “Phenotype observed” value [4] is reported as “Reduces sperm motility”.

In the case of `[O-][S+](c1ccccc1)c1ccc2nnnn2n1` (stereo not drawn) [Ro 106–9920], the “Phenotype observed” value [4] is reported as “Reduces sperm motility”.

With `CCCCCCCCOc1ccc(-c2noc([C@@H]3CCCN3C(=N)N)n2)cc1C(F)(F)F` [SLM 6031434 hydrochloride] the “Phenotype observed” value [4] was “Induces acrosome reaction”.

With `COc1cc(C)c2c(Oc3cccc(C(F)(F)F)c3)c(OC)cc(NC(C)CCCN)c2n1` (stereo not drawn) [Tafenoquine] the “sperm motility and/or acrosome reacted cells (unsupervised clustering)” value [3] was “significant reduction of sperm motility and/or increased amounts of acrosome reacted cells” and the “Phenotype observed” value [4] was “Reduces sperm motility; induces acrosome reaction”.

In the case of `COc1cc2c(cc1OC)-c1c/c(=N\c3c(C)cc(C)cc3C)n(C)c(=O)n1CC2` [Trequinsin hydrochloride], the “Published Phenotype” value [2] is listed as “Increases hyperactivated sperm; increases penetration of sperm into viscous media, increases motility”, the “general cytotoxicity (HepG2)” value [6] is listed as “do not show effects” and the “acrosome reaction” value [7] is listed as “significantly increased”. For the same compound, the “effects on sperm viability” value [8] was “do not show effects”, the hyperactive motility [9] was “significantly increased” and the “general cytotoxicity (HeLa)” value [10] was “do not show effects”.

In the case of `O=C(N1CCCCC1)N1CCCCC1Cc1ccccc1` (stereo not drawn) [compound 183], the “ch (percentage change vs DMSO median), Acrosome” value [1, 11] is listed as 0.955%, the “ch (percentage change vs DMSO median), Acrosome” value [1, 12] is listed as 1.376% and the “Published Phenotype” value [2] is listed as “Reduces acrosome reaction”.
